# Measured values: patent US10988478B1, “Pyrazolo[1,5a]pyrimidine derivatives as IRAK4 modulators” (Genentech, Inc., priority 2015, dated 2021)
# Target: human IRAK4 (Homo sapiens (Human), UniProt Q9NWZ3)
# Assay: IRAK4 kinase inhibition, Transcreener fluorescence polarization ADP assay
# Format: biochemical
# Conditions: recombinant full-length His6-IRAK4; 125 uM ATP; 90 min; Ki computed using ATP Km 642 uM
# Protocol: Compounds were assayed for inhibition of human IRAK4 and IRAK1 catalytic activity using recombinant enzyme produced from insect cells. Full-length IRAK4 protein, carrying an N-terminal His6-Tag, was obtained from Life Technologies (Carlsbad, Calif., USA). The IRAK1 construct was produced internally and was comprised of IRAK1 residues Arg194 to Ser712, preceded by an NH2-terminal His6 tag and the coding sequence for glutathione-S-transferase.
# human IRAK4, sequence (Q9NWZ3 whole entry): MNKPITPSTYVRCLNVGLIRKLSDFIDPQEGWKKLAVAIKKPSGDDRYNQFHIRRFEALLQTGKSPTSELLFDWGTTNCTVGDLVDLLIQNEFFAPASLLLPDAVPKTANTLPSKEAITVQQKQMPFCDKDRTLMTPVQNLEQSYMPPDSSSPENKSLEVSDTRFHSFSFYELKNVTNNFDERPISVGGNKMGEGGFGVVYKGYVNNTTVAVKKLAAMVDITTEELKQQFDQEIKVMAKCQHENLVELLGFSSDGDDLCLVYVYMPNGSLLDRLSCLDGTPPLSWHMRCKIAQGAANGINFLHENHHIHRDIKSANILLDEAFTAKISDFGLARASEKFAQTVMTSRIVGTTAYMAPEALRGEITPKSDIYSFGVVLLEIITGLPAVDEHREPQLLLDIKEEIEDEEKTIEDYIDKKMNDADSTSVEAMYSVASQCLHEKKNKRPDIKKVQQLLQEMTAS
row,Ki [nM],Molecule
1,94,"O=C(Nc1cc2c(cc1N1CCOCC1)C(=O)N([C@@H]1CCC[C@@H]1CO)C2)c1cnn2cccnc12 [Example 565, N-(2-((1R,2S)-2-(hydroxymethyl)cyclopentyl)-6-morpholino-1-oxoisoindolin-5-yl)pyrazolo[1,5-a]pyrimidine-3-carboxamide]"
2,8,"O=C(Nc1cc2c(cc1N1CCOCC1)C(=O)N([C@H]1CCC[C@@H]1CO)C2)c1cnn2cccnc12 [Example 566, N-(2-((1S,2S)-2-(hydroxymethyl)cyclopentyl)-6-morpholino-1-oxoisoindolin-5-yl)pyrazolo[1,5-a]pyrimidine-3-carboxamide]"
3,5.9,"O=C(Nc1cc2c(cc1N1CCOCC1)C(=O)N([C@@H]1CCC[C@H]1CO)C2)c1cnn2cccnc12 [Example 567, N-(2-((1R,2R)-2-(hydroxymethyl)cyclopentyl)-6-morpholino-1-oxoisoindolin-5-yl)pyrazolo[1,5-a]pyrimidine-3-carboxamide]"
4,3.1,"CC1(C#N)CCN(c2cc3c(cc2NC(=O)c2cnn4cccnc24)CN(C[C@@H](F)C(C)(C)O)C3=O)CC1 [Example 569, N-[6-(4-Cyano-4-methyl-1-piperidyl)-2-[(2R)-2-fluoro-3-hydroxy-3-methyl-butyl]-1-oxo-isoindolin-5-yl]pyrazolo[1,5-a]pyrimidine-3-carboxamide]"
5,0.63,"CN(C)c1cc2c(cc1NC(=O)c1cnn3cccnc13)CN(C[C@@H](F)C(C)(C)O)C2=O [Example 570, N-[6-(dimethylamino)-2-[(2R)-2-fluoro-3-hydroxy-3-methyl-butyl]-1-oxo-isoindolin-5-yl]pyrazolo[1,5-a]pyrimidine-3-carboxamide]"
6,40,"N-[(2R)-6-[4-(2,2-difluoroethyl)piperazin-1-yl]-2-(hydroxymethyl)-2-methyl-3H-benzofuran-5-yl]-6-fluoro-pyrazolo[1,5-a]pyrimidine-3-carboxamide [Example 494]"
7,17,"N-[(2S)-6-[4-(2,2-difluoroethyl)piperazin-1-yl]-2-(hydroxymethyl)-2-methyl-3H-benzofuran-5-yl]-6-fluoro-pyrazolo[1,5-a]pyrimidine-3-carboxamide [Example 495]"

row,Molecule,Ki [nM]
1,"N-(2,2-dimethyl-6-(4-(2-oxo-2-(thiazol-2-ylamino)ethyl)piperazin-1-yl)-2,3-dihydrobenzofuran-5-yl)pyrazolo[1,5-a]pyridine-3-carboxamide [Example 441]",6
2,"N-[2,2-Dimethyl-6-[(5-methyl-1H-pyrazol-3-yl)methoxy]-3H-benzofuran-5-yl]pyrazolo[1,5-a]pyrimidine-3-carboxamide [Example 543]",140
